Values after ≈ are worked out from the molar mass of the structure shown.
Tests used:
K562 = test: Antitumor activity against human K562 cells assessed as cell growth at 0.1 uM; type: functional; conditions: read-out: Activity
SK-MEL-28 = test: Antitumor activity against human SK-MEL-28 cells assessed as cell growth at 0.1 uM; type: functional; conditions: read-out: Activity
[1] = Antitumor activity against human HCC2998 cells assessed as cell growth at 0.1 uM; type: functional; conditions: HCC 2998, read-out: Activity
T47D = test: Antitumor activity against human T47D cells assessed as cell growth at 0.1 uM; type: functional; conditions: read-out: Activity
RXF 393 = test: Antitumor activity against human RXF393 cells assessed as cell growth at 0.1 uM; type: functional; conditions: read-out: Activity
DU-145 = test: Antitumor activity against human DU145 cells assessed as cell growth at 0.1 uM; type: functional; conditions: read-out: Activity
[2] = Antitumor activity against human EKVX cells assessed as cell growth at 0.1 uM; type: functional; conditions: read-out: Activity
SF-295 = test: Antitumor activity against human SF295 cells assessed as cell growth at 0.1 uM; type: functional; conditions: read-out: Activity
RPMI-8226 = test: Antitumor activity against human RPMI8226 cells assessed as cell growth at 0.1 uM; type: functional; conditions: read-out: Activity
PC-3 = test: Antitumor activity against human PC3 cells assessed as cell growth at 0.1 uM; type: functional; conditions: read-out: Activity
A549 = test: Antitumor activity against human A549/ATCC cells assessed as cell growth at 0.1 uM; type: functional; conditions: read-out: Activity
IGROV-1 = test: Antitumor activity against human IGROV1 cells assessed as cell growth at 0.1 uM; type: functional; conditions: read-out: Activity
SNB-75 = test: Antitumor activity against human SNB75 cells assessed as cell growth at 0.1 uM; type: functional; conditions: read-out: Activity
Malme-3M = test: Antitumor activity against human MALME-3M cells assessed as cell growth at 0.1 uM; type: functional; conditions: read-out: Activity
OVCAR-8 = test: Antitumor activity against human OVCAR8 cells assessed as cell growth at 0.1 uM; type: functional; conditions: read-out: Activity
MDA-MB-435 = test: Antitumor activity against human MDA-MB-435 cells assessed as cell growth at 0.1 uM; type: functional; conditions: read-out: Activity
HT-29 = test: Antitumor activity against human HT-29 cells assessed as cell growth at 0.1 uM; type: functional; conditions: read-out: Activity
NCI-H522 = test: Antitumor activity against human NCI-H522 cells assessed as cell growth at 0.1 uM; type: functional; conditions: read-out: Activity
U-251 = test: Antitumor activity against human U251 cells assessed as cell growth at 0.1 uM; type: functional; conditions: read-out: Activity
Aspergillus clavatus = test: Antimicrobial activity against Aspergillus clavatus MTCC 1323 assessed as growth inhibition measured after overnight incubation by broth dilution method; type: functional
SF-268 = test: Antitumor activity against human SF268 cells assessed as cell growth at 0.1 uM; type: functional; conditions: read-out: Activity
NCI/ADR-RES = test: Antitumor activity against human NCI/ADR-RES cells assessed as cell growth at 0.1 uM; type: functional; conditions: read-out: Activity
SK-MEL-5 = test: Antitumor activity against human SK-MEL-5 cells assessed as cell growth at 0.1 uM; type: functional; conditions: read-out: Activity
HCT-116 = test: Antitumor activity against human HCT116 cells assessed as cell growth at 0.1 uM; type: functional; conditions: read-out: Activity
NCI-H460 = test: Antitumor activity against human NCI-H460 cells assessed as cell growth at 0.1 uM; type: functional; conditions: read-out: Activity
OVCAR-3 = test: Antitumor activity against human OVCAR3 cells assessed as cell growth at 0.1 uM; type: functional; conditions: read-out: Activity
MCF7 = test: Antitumor activity against human MCF7 cells assessed as cell growth at 0.1 uM; type: functional; conditions: read-out: Activity
SR = test: Antitumor activity against human SR cells assessed as cell growth at 0.1 uM; type: functional; conditions: read-out: Activity
TK-10 = test: Antitumor activity against human TK10 cells assessed as cell growth at 0.1 uM; type: functional; conditions: read-out: Activity
Staphylococcus aureus = test: Antimicrobial activity against Staphylococcus aureus MTCC 96 assessed as growth inhibition measured after overnight incubation by broth dilution method; type: functional
MDA-MB-468 = test: Antitumor activity against human MDA-MB-468 cells assessed as cell growth at 0.1 uM; type: functional; conditions: read-out: Activity
OVCAR-5 = test: Antitumor activity against human OVCAR5 cells assessed as cell growth at 0.1 uM; type: functional; conditions: read-out: Activity
HL-60 = test: Antitumor activity against human HL60(TB) cells assessed as cell growth at 0.1 uM; type: functional; conditions: read-out: Activity
HCT-15 = test: Antitumor activity against human HCT15 cells assessed as cell growth at 0.1 uM; type: functional; conditions: read-out: Activity
LOX IMVI = test: Antitumor activity against human LOXIMVI cells assessed as cell growth at 0.1 uM; type: functional; conditions: read-out: Activity
NCI-H23 = test: Antitumor activity against human NCI-H23 cells assessed as cell growth at 0.1 uM; type: functional; conditions: read-out: Activity
SF-539 = test: Antitumor activity against human SF539 cells assessed as cell growth at 0.1 uM; type: functional; conditions: read-out: Activity
M14 = test: Antitumor activity against human M14 cells assessed as cell growth at 0.1 uM; type: functional; conditions: read-out: Activity
SK-MEL-2 = test: cells; conditions: Homo sapiens, SK-MEL-2, read-out: Activity
Description: Antitumor activity against human SK-MEL-2 cells assessed as cell growth at 0.1 uM

CAKI-1 = test: Antitumor activity against human CAKI-1 cells assessed as cell growth at 0.1 uM; type: functional; conditions: read-out: Activity
SK-OV-3 = test: Antitumor activity against human SKOV3 cells assessed as cell growth at 0.1 uM; type: functional; conditions: read-out: Activity
MOLT-4 = test: Antitumor activity against human MOLT4 cells assessed as cell growth at 0.1 uM; type: functional; conditions: read-out: Activity
ACHN = test: Antitumor activity against human ACHN cells assessed as cell growth at 0.1 uM; type: functional; conditions: read-out: Activity
Escherichia coli = test: Antimicrobial activity against Escherichia coli MTCC 443 assessed as growth inhibition measured after overnight incubation by broth dilution method; type: functional
SNB-19 = test: Antitumor activity against human SNB19 cells assessed as cell growth at 0.1 uM; type: functional; conditions: read-out: Activity
Candida albicans = test: Antimicrobial activity against Candida albicans MTCC 227 assessed as growth inhibition measured after overnight incubation by broth dilution method; type: functional
SN12C = test: Antitumor activity against human SN12C cells assessed as cell growth at 0.1 uM; type: functional; conditions: read-out: Activity
SW-620 = test: Antitumor activity against human SW620 cells assessed as cell growth at 0.1 uM; type: functional; conditions: read-out: Activity
UACC-62 = test: Antitumor activity against human UACC62 cells assessed as cell growth at 0.1 uM; type: functional; conditions: read-out: Activity
[3] = Antitumor activity against human Hs 578T cells assessed as cell growth at 0.1 uM; type: functional; conditions: read-out: Activity
BT-549 = test: Antitumor activity against human BT549 cells assessed as cell growth at 0.1 uM; type: functional; conditions: read-out: Activity
UACC-257 = test: Antitumor activity against human UACC257 cells assessed as cell growth at 0.1 uM; type: functional; conditions: read-out: Activity
HOP-62 = test: Antitumor activity against human HOP62 cells assessed as cell growth at 0.1 uM; type: functional; conditions: read-out: Activity
Streptococcus pyogenes = test: Antimicrobial activity against Streptococcus pyogenes MTCC 442 assessed as growth inhibition measured after overnight incubation by broth dilution method; type: functional
CCRF-CEM = test: Antitumor activity against human CCRF-CEM cells assessed as cell growth at 0.1 uM; type: functional; conditions: read-out: Activity
UO-31 = test: Antitumor activity against human UO31 cells assessed as cell growth at 0.1 uM; type: functional; conditions: read-out: Activity
MDA-MB-231 = test: Antitumor activity against human MDA-MB-231/ATCC cells assessed as cell growth at 0.1 uM; type: functional; conditions: read-out: Activity
A498 = test: Antitumor activity against human A498 cells assessed as cell growth at 0.1 uM; type: functional; conditions: read-out: Activity
Aspergillus niger = test: Antimicrobial activity against Aspergillus niger MTCC 282 assessed as growth inhibition measured after overnight incubation by broth dilution method; type: functional
OVCAR-4 = test: Antitumor activity against human OVCAR4 cells assessed as cell growth at 0.1 uM; type: functional; conditions: read-out: Activity
Pseudomonas aeruginosa = test: Antimicrobial activity against Pseudomonas aeruginosa MTCC 2488 assessed as growth inhibition measured after overnight incubation by broth dilution method; type: functional
NCI-H226 = test: Antitumor activity against human NCI-H226 cells assessed as cell growth at 0.1 uM; type: functional; conditions: read-out: Activity
[4] = test system: Mycobacterium tuberculosis; test: Antitubercular activity against Mycobacterium tuberculosis H37Rv assessed as growth inhibition after 12 to 28 days by L.J. agar MIC method; type: functional

COc1cc(OC)nc(NC(=O)CSc2nnc(-c3cccnc3SCc3ccccc3)o2)n1
growth at 0.1 µM (K562): 98.2% | growth at 0.1 µM (SK-MEL-28): 114% | growth at 0.1 µM [1]: 109% | growth at 0.1 µM (T47D): 89.9% | growth at 0.1 µM (RXF 393): 107% | growth at 0.1 µM (DU-145): 108% | growth at 0.1 µM [2]: 105% | growth at 0.1 µM (SF-295): 97.1% | growth at 0.1 µM (RPMI-8226): 101% | growth at 0.1 µM (PC-3): 104% | growth at 0.1 µM (A549): 96.5% | growth at 0.1 µM (IGROV-1): 114% | growth at 0.1 µM (SNB-75): 92.5% | growth at 0.1 µM (Malme-3M): 98.2% | growth at 0.1 µM (OVCAR-8): 105% | growth at 0.1 µM (MDA-MB-435): 105% | growth at 0.1 µM (HT-29): 100% | growth at 0.1 µM (NCI-H522): 88.2% | growth at 0.1 µM (U-251): 106% | MIC (Aspergillus clavatus): 500 µg/mL (≈ 1010 µM) | growth at 0.1 µM (SF-268): 104% | growth at 0.1 µM (NCI/ADR-RES): 102% | growth at 0.1 µM (SK-MEL-5): 105% | growth at 0.1 µM (HCT-116): 101% | growth at 0.1 µM (NCI-H460): 112% | growth at 0.1 µM (OVCAR-3): 102% | growth at 0.1 µM (MCF7): 95.5% | growth at 0.1 µM (SR): 96.2% | growth at 0.1 µM (TK-10): 98.6% | MIC (Staphylococcus aureus): 250 µg/mL (≈ 503 µM) | growth at 0.1 µM (MDA-MB-468): 98.2% | growth at 0.1 µM (OVCAR-5): 101% | growth at 0.1 µM (HL-60): 97.3% | growth at 0.1 µM (HCT-15): 105% | growth at 0.1 µM (LOX IMVI): 97.6% | growth at 0.1 µM (NCI-H23): 103% | growth at 0.1 µM (SF-539): 94.5% | growth at 0.1 µM (M14): 96.7% | growth at 0.1 µM (SK-MEL-2): 102% | growth at 0.1 µM (CAKI-1): 99.5% | growth at 0.1 µM (SK-OV-3): 103% | growth at 0.1 µM (MOLT-4): 93.2% | growth at 0.1 µM (ACHN): 107% | MIC (Escherichia coli): 100 µg/mL (≈ 201 µM) | growth at 0.1 µM (SNB-19): 107% | MIC (Candida albicans): 500 µg/mL (≈ 1010 µM) | growth at 0.1 µM (SN12C): 106% | growth at 0.1 µM (SW-620): 107% | growth at 0.1 µM (UACC-62): 107% | growth at 0.1 µM [3]: 107% | growth at 0.1 µM (BT-549): 99.6% | growth at 0.1 µM (UACC-257): 105% | growth at 0.1 µM (HOP-62): 99.7% | MIC (Streptococcus pyogenes): 125 µg/mL (≈ 252 µM) | growth at 0.1 µM (CCRF-CEM): 108% | growth at 0.1 µM (UO-31): 80.6% | growth at 0.1 µM (MDA-MB-231): 108% | growth at 0.1 µM (A498): 125% | MIC (Aspergillus niger): 500 µg/mL (≈ 1010 µM) | growth at 0.1 µM (OVCAR-4): 100% | MIC (Pseudomonas aeruginosa): 250 µg/mL (≈ 503 µM) | growth at 0.1 µM (NCI-H226): 101% | growth inhibition (GI) [4]: 99% | MIC ([4]; Mycobacterium tuberculosis, H37Rv): 250 µg/mL (≈ 503 µM)
